Measurements taken from patent publication US20230133910A1, “NEW METHOD FOR DETECTING AND QUANTIFYING RNA” (EAST CHINA UNIVERSITY OF SCIENCE AND TECHNOLOGY, priority 2020, published 2023).

Tests used:
[1] = system: Carrot-1 RNA aptamer; test: Properties of Carrot-1 RNA aptamer with different fluorophores (spectra, extinction coefficient, quantum yield, activation fold); assay type: biochemical; settings: for fluorescence intensity: excited at 524±10 nm, emission 580 nm±10 nm, 5 μM Carrot-1 + 1 μM IV-39, or control 1 μM IV-39 alone
Description: (§1) (5) Function detection of nucleic acid aptamers Carrot or Carrot mutant nucleic acid aptamer molecules were prepared according to common experimental method (I), 5 μM of nucleic acid aptamer molecules and 1 μM of fluorophore molecules were incubated in detection buffer (40 mM HEPES, pH 7.4, 125 mM KCl, 5 mM MgCl2, 5% DMSO), and Synergy Neo2 multifunctional microplate reader was used for detecting and obtaining the maximum excitation peak and the maximum emission peak of the fluorescence of the nucleic acid aptamer-fluorophore molecule complex. The Synergy Neo2 multifunctional microplate reader was used again for detecting the fluorescence intensity of the aptamer-fluorophore molecule complex under its maximum excitation and emission conditions. Control sample (1 μM of fluorophore molecules without nucleic acid aptamer) was measured under the same condition, and the ratio of fluorescence intensity was calculated. […] By using Synergy Neo2 multifunctional microplate reader, it was detected that the fluorescence intensity of the complex was 5720 when it was excited at 524±10 nm and emitted under the emission condition of 580 nm±10 nm, while fluorescence intensity of the control sample (1 μM of IV-39 fluorophore molecules) under the same detection condition was 20, so the activation multiple of Carrot-1 nuclear acid aptamer to IV-39 fluorophore molecule was 286.
In order to detect the spectral properties of the Carrot-IV-39 complex, Carrot-1 (SEQ ID NO: 2) RNA was prepared according to the commonly used experimental method (1). 1 μM IV-39 with 5 μM Carrot-1 was incubated.
Carrot-1 RNA aptamer was prepared according to the commonly used experimental methods (1), and was used to detect the properties of IV-39 analogues upon Carrot binding, including the fluorescence spectrum, extinction coefficient, quantum yield and fluorescence activation fold. From the data shown in the table, Carrot-1 still could activate the fluorescence of IV-39 analogues.

[2] = target: Carrot-1; test: Binding constant of Carrot-1 and IV-39 by fluorescence titration; settings: 20 nM Carrot-1 incubated with different concentrations of IV-39
Description: In order to detect the binding constant of Carrot-1 and IV-39, 20 nM Carrot-1 was incubated with different concentrations of IV-39 and their fluorescence was determined.

[3] = Fluorescence activation of IV-39 fluorophore by Carrot-1 and Carrot mutants (function detection of nucleic acid aptamers); assay type: biochemical; settings: for Activation fold: 1 μM IV-39 incubated with 5 μM Carrot-1 mutant RNA
Description: as §1
In order to detect the fluorescence activation of IV-39 fluorophore by different Carrot mutant, the Carrot-1 sequence was mutated according to Table 1. The Carrot RNA containing different mutations were prepared according to the commonly used experimental method (1). 1 μM IV-39 was incubated with 5 μM Carrot-1 mutant RNA and their fluorescence activation folds were determined according to the commonly used experimental method (5). […] Several Carrot-1 mutants containing 2-5 mutations still retained strong fluorescence activation of IV-39 (>100 times) (Table 3). In summary, many Carrot-1 mutants containing single and multiple mutants still retain the ability to activate the fluorescence of IV-39 fluorophore.

[4] = system: tdMCP-NanoLuc-tdMCP fusion protein; settings: 293T/17 cells, 1 μM IV-4, 20 μM Furimazine
From the text: In order to use Carrot to detect RNA-protein interactions, the interaction between phage capsid protein MCP and its binding sequence MS2 RNA was used as an example. […] The cDNAs encoding tdMCP protein (the dimeric form of MCP, SEQ ID No: 32) and NanoLuc protein (SEQ ID No: 33) were synthesized. Primers P29 and P30, P33 and P34 were used to amplify tdMCP gene fragment, respectively. Primers P35 and P36 were used to amplify NanoLuc gene fragment. The obtained fragments were inserted into the HindIII and XhoI sites of pCDNA3.1 hygro(+) to generate pCDNA3.1 hygro(+)-tdMCP-NanoLuc-tdMCP according to the commonly used experimental method (4), the sequence of the fusion protein encoded by which is SEQ ID No:34.
After 24 h of transfection, 1 μM IV-4 fluorophore was added to label Carrot. Imaging was taken immediately after addition of 20 μM Furimazine to the medium.

[5] = system: 293T/17 cells; test: RNA labeling in mammalian cells using tRNA-Carrot-2 and IV-39; assay type: cell-based
From the text: In major imaging experiments of the examples, a Leica SP8 confocal laser microscope was used for photographing, HCXPL APO 63.0×1.47 oil lens and HyD detector were used, and various lasers, such as 405 nm, 457 nm, 476 nm, 488 nm, 497 nm, 514 nm nm, 561 nm and 633 nm, were used for imaging; complexes formed by each Carrot and dye molecules were imaged by laser close to the wavelength corresponding to the maximum excitation peak. For others, GFP used a 488 nm laser; Hoechst and DAPI fluorescence used a 405 nm laser; and Rhodamine used a 561 nm laser.
In order to use Carrot and IV-39 for RNA labeling in mammalian cells, the reported Pepper and Corn aptamer (binding to HBC599 and DFHO fluorophores, respectively) were used as the controls (Chen et al. Nature Biotechnology 2019. 37: 1287-1293; Song et al. Nature Chemical Biology 2017. 13: 1187-1194). The mammalian cell expression plasmids expressing the RNA aptamers were constructed. cDNAs encoding tRNA-Carrot-2 (SEQ ID No: 4), tRNA-Pepper (SEQ ID No: 22) and tRNA-Corn (SEQ ID No: 21) were synthesized and amplified using the primers P7 and P8, and the primers P9 and P10 were used to amplify pEGFP-N1 to remove the promoter and multiple cloning site regions. […] Fluorescence imaging was performed according to the commonly used experimental method (3).

[6] = complex of 5 μM Carrot-1 and 1 μM IV-39

Molecule: CN1C(=O)/C(=C/c2ccc(N(C)CCO)cc2)N=C1/C=C/c1ccccc1 [IV-39]
- fluorescence intensity [1]: 20
- Kd [2]: 58 nM

Molecule: Carrot-1: RNA aptamer with the sequence of SEQ ID NO: 1, General Formula Carrot structure N1AGAUUGUAAACAN14-N15-N16GACACUN23 (GGGAAGAUUGUAAACACGCCGAAAGGCGGACACUUCCC; chemistry not given here)
- Activation fold ([3]; multiple mutations): 286 fold
- Activation fold ([3]; single mutation): 286 fold
- activation multiple of aptamer to IV-39 fluorophore molecule ([3]; 5 μM Carrot-1, 1 μM IV-39, ratio of fluorescence intensity to fluorophore alone): 286
- maximum emission peak [1, 6]: 580 nm
- maximum excitation peak [1, 6]: 524 nm
- fluorescence intensity [1]: 5720
- fluorescence of Carrot-IV-4 complex by luminescence energy transfer (BRET) [4]: could not emit obvious orange-red fluorescence

B1: tRNA-Carrot-IV-39: complex of tRNA-Carrot-2 (SEQ ID No: 4) RNA aptamer and IV-39 fluorophore (nucleic acid)
chain: GCCCGGAUAGCUCAGUCGGUAGAGCAGCGGCCGGAAGAUUGUAAACACGCCGAAAGGCGGACACUUCCGGCCGCGGGUCCAGGGUUCAAGUCCCUGUUCGGGCGCCA
modifications: RNA aptamer in complex with IV-39 fluorophore, further chemistry not given here
- fluorescence intensity compared with tRNA-Pepper-HBC599 and tRNA-Corn-DFHO complexes ([5]; 0.5 μM IV-39, 0.5 μM HBC599, 10 μM DFHO): markedly higher
- fluorescence in cells ([5]; 0.5 μM IV-39, 24 h after transfection, with or without 20 mM Mg2+): bright orange fluorescence
